Test results published in US7662968B2, “Process for preparing lansoprazole” (KRKA tovarna zdravil, d.d.., priority 2005, dated 2010).
Several values for one entry are separate records, joined by “and”; a condition that tells them apart may be missing. Identical values can stand only once.

Experiments:
[1] = Release of lansoprazole from pellets (dissolution, Ph. Eur. Paddle method); assay type: physicochemical; details: paddle 100 rpm, after one hour in artificial gastric juice pH 1.2, FIG. 1; for release of lansoprazole from pellets (comparison in words): phosphate buffer pH 6.8, 37° C.
Protocol: The release of lansoprazole was spectrophotometrically determined using Hewlett Packard 8452 A Diode array spectrophotometer and automatic sampling system Multicell Transport System. Dissolution profiles were obtained at 37° C. using 900 ml phosphate buffer solution having pH 6.8 and Ph. Eur. Paddle method (100 rpm). Before analysis, the pellet samples were treated with artificial gastric juice (500 ml) having a pH of 1.2 for one hour, washed and quantitatively transferred into the phosphate buffer. […] Preferably more than 80%, more preferably more than 85% and most preferred more than 90% of lansoprazole are released from the compositions according to the invention within 30 minutes.
If a lansoprazole prepared according to example 4 having a BET-surface area of 4.76 m^2/g is used, more than 90% of the drug is released within the first 30 minutes (upper curve).

[2] = BET-surface area determination (nitrogen desorption, BET FlowSorb II 2300); assay type: physicochemical; details: 30 vol. % nitrogen / 70 vol. % helium at 77 K
Protocol: Unless otherwise noted, the BET-surface areas of the produced lansoprazole are determined by calculation from desorption data of nitrogen obtained on a BET FlowSorb II 2300 (Micromeritics Instrument Corp., USA) using a mixture of 30 vol. % nitrogen and 70 vol. % helium at 77 K.

[3] = lansoprazole form A as obtained after purification and drying

release of lansoprazole from pellets (comparison in words) [1]	BET-surface area [2, 3]	BET-surface area ([2]; lansoprazole form A further milled) [m^2/g]	drug released ([1]; pellets prepared according to Example 8, within the first 30 minutes, 900 ml phosphate buffer pH 6.8, 37° C.)	release of lansoprazole from pellets (comparison in words) ([1]; listed as lansoprazole having a BET-surface area of 4.67 m^2/g)	SMILES
clearly smaller release	0.25 m^2/g	0.87			Cc1c(OCC(F)(F)F)ccnc1C[S+]([O-])c1nc2ccccc2[nH]1 (centres unmarked) [Example 3, 2-[[[3-methyl-4-(2,2,2-trifluoroethoxy)-2-pyridinyl]methyl]sulfinyl]-1H-benzimidazole]
	4.67 m^2/g and 4.76 m^2/g		more than 90%	clearly faster	Cc1c(OCC(F)(F)F)ccnc1C[S+]([O-])c1nc2ccccc2[nH]1 (centres unmarked) [Example 4, 2-[[[3-methyl-4-(2,2,2-trifluoroethoxy)-2-pyridinyl]methyl]sulfinyl]-1H-benzimidazole]
clearly smaller release	1.0 m^2/g and 1.00 m^2/g				Cc1c(OCC(F)(F)F)ccnc1C[S+]([O-])c1nc2ccccc2[nH]1 (centres unmarked) [Example 5, 2-[[[3-methyl-4-(2,2,2-trifluoroethoxy)-2-pyridinyl]methyl]sulfinyl]-1H-benzimidazole]
